In the CheMixHub drug solubility set:

Experiment: xn = mol fraction of the nth substance listed, in the solute-free solvent

S=c1[nH]ncs1 + CCCO + O
solubility (g/100 g solution)
Conditions	278.15 K	283.15 K	288.15 K	293.15 K	298.15 K	303.15 K	308.15 K	313.15 K	318.15 K	323.15 K
x2 = 0.1	1.64	2.13	2.71	3.49	4.42	5.59	6.98	8.6	10.7	13.4
x2 = 0.2	3.48	4.3	5.41	6.75	8.22	10	12.1	14.6	17.5	20.8
x2 = 0.3	5.01	6.25	7.53	9.11	10.8	12.9	15.4	18.1	21.5	25.1
x2 = 0.4	6.2	7.46	8.98	10.7	12.7	14.7	17.2	20.1	23.3	26.9
x2 = 0.5	7.02	8.48	9.9	11.7	13.5	15.7	18.1	20.8	23.9	27.3
x2 = 0.6	7.59	8.9	10.3	11.9	13.8	15.9	18.2	20.4	23.3	26.4
x2 = 0.7	7.61	8.94	10.3	11.8	13.6	15.4	17.3	19.7	22.2	25.2
x2 = 0.8	7.47	8.6	9.84	11.4	13.1	14.6	16.8	18.9	21.2	24.1
x2 = 0.9	6.73	8.12	8.99	10.4	11.8	13.5	15.3	17.3	19.6	22.2

O=C(O)CC(O)C(=O)O (stereo unspecified) + CC#N + CCCCOC(C)=O
solubility (g/100 g solution)
Conditions	278.15 K	283.15 K	288.15 K	293.15 K	298.15 K	303.15 K	308.15 K	313.15 K	318.15 K	323.15 K
x2 = 0.4143	1.23	1.39	1.63	1.79	2.06	2.36	2.73	3.15	3.71	4.37
x2 = 0.5481	1.54	1.77	2.1	2.45	2.86	3.39	3.96	4.62	5.41	6.44
x2 = 0.6535	2.05	2.38	2.8	3.32	3.93	4.61	5.48	6.51	7.78	9.24
x2 = 0.7389	2.71	3.15	3.56	4.05	4.88	5.66	6.77	7.85	9.29	11.2
x2 = 0.8093	3.25	3.73	4.29	4.93	5.81	6.58	7.95	9.34	10.9	13.2
x2 = 0.8685	3.84	4.31	4.89	5.73	6.8	8.05	9.49	11.3	13.5	15.8
x2 = 0.9188	4.19	4.92	5.74	6.72	8.05	9.62	11.4	13.7	16.4	19.4

c1ccc2[nH]c(-c3cscn3)nc2c1 + CCCO + O
solubility (g/100 g solution)
Conditions	283.15 K	288.15 K	293.15 K	298.15 K	303.15 K	308.15 K	313.15 K	318.15 K	323.15 K
x2 = 0.03225	0.00325	0.00407	0.00514	0.00634	0.00789	0.00974	0.0118	0.0143	0.0173
x2 = 0.06974	0.0139	0.017	0.021	0.0263	0.0319	0.0383	0.0458	0.0545	0.0646
x2 = 0.1139	0.0334	0.0402	0.0487	0.0585	0.0703	0.0828	0.0976	0.116	0.136
x2 = 0.1666	0.0767	0.09	0.106	0.122	0.142	0.162	0.188	0.212	0.242
x2 = 0.2307	0.141	0.163	0.188	0.216	0.249	0.284	0.321	0.365	0.413
x2 = 0.3103	0.21	0.243	0.282	0.322	0.367	0.415	0.47	0.525	0.592
x2 = 0.4117	0.291	0.331	0.38	0.435	0.497	0.563	0.633	0.707	0.794
x2 = 0.5454	0.37	0.423	0.483	0.545	0.62	0.699	0.785	0.879	0.983
x2 = 0.7297	0.425	0.482	0.553	0.623	0.708	0.79	0.883	0.986	1.1
